According to patent publication US20020007060A1, “Reverse hydroxamate inhibitors of matrix metalloproteinases” (priority 1998, published 2002):

Row | melting point | SMILES
1 | 130 to 132 °C | CN1C(=O)N(CC(COc2ccc(-c3cccc(C#N)c3)cc2)N(O)C=O)C(=O)C1(C)C (stereo not drawn) [Example 39, N-[1-[[(3′-cyano[1,1′-biphenyl]-4-yl)oxy]methyl]-2-(3,4,4-trimethyl-2,5-dioxo-1-imidazolidinyl)ethyl]-N-hydroxyformamide]
2 | 138.9 to 140.3 °C | O=CN(O)C(CCCO)CS(=O)(=O)c1ccc(-c2ccc(C(F)(F)F)cc2)cc1 (racemic) [Example 128, (±)-N-hydroxy-N-[4-hydroxy-1-[[[4′-(trifluoromethyl)[1,1′-biphenyl]-4-yl]sulfonyl]methyl]butyl]formamide]
3 | 144 to 145 °C | CC(CS(=O)(=O)c1ccc(Oc2ccc(Cl)cc2)cc1)N(O)C=O (stereo not drawn) [Example 74, N-[1-[[[4-(4-chlorophenoxy)phenyl]sulfonyl]methyl]ethyl]-N-hydroxyformamide]
4 | 167 to 168 °C | O=CN(O)C(CO)CS(=O)(=O)c1ccc(-c2ccc(OC(F)(F)F)cc2)cc1 (racemic) [Example 151, (±)-N-hydroxy-N-[1-(hydroxymethyl)-2-[[4′-(trifluoromethoxy)[1,1′-biphenyl]-4-yl]sulfonyl]ethyl]formamide]
5 | 172 to 174 °C | CSc1ccc(-c2ccc(OCC(CN3C(=O)N(C)C(C)(C)C3=O)N(O)C=O)cc2)cc1 (stereo not drawn) [Example 40, N-[1-[[[4′-(methylthio)[1,1′-biphenyl]-4-yl]oxy]methyl]-2-(3,4,4-trimethyl-2,5-dioxo-1-imidazolidinyl)ethyl]-N-hydroxyformamide]
6 | 203 to 205 °C | CN1C(=O)N(CC(COc2ccc(-c3ccc(S(N)(=O)=O)cc3)cc2)N(O)C=O)C(=O)C1(C)C (stereo not drawn) [Example 114, N-[1-[[[4′-(aminosulfonyl)[1,1′-biphenyl]-4-yl]oxy]methyl]-2-(3,4,4-trimethyl-2,5-dioxo-1-imidazolidinyl)ethyl]-N-hydroxyformamide]
7 | 115 to 117 °C | O=CN(O)C(CO)CS(=O)(=O)c1ccc(Oc2ccc(OC(F)(F)F)cc2)cc1 (racemic) [Example 138, (±)-N-hydroxy-N-[1-(hydroxymethyl)-2-[[4-[4-(trifluoromethoxy)phenoxy]phenyl]sulfonyl]ethyl]formamide]
8 | 178 to 180 °C | CC(CS(=O)(=O)c1ccc(-c2ccc(Cl)cc2)cc1)N(O)C=O (stereo not drawn) [Example 72, N-[1-[[(4′-chloro[1,1′-biphenyl]-4-yl)sulfonyl]methyl]ethyl]-N-hydroxyformamide]
9 | 133 to 135 °C | N#Cc1ccc(-c2ccc(OCC(COc3ccccc3)N(O)C=O)cc2)cc1 (racemic) [Example 1, (±)-N-[1-[[(4′-cyano-[1,1′-biphenyl]-4-yl)oxy]methyl]-2-phenoxyethyl]-N-hydroxyformamide]
10 | 199 to 200 °C | CCC(CS(=O)(=O)c1ccc(-c2ccc(OC)cc2)cc1)N(O)C=O (stereo not drawn) [Example 75, N-[1-[[(4′-methoxyl[1,1′-biphenyl]-4-yl)sulfonyl]methyl]propyl]-N-hydroxyformamide]
11 | 175.3 to 176.3 °C | COCC(CS(=O)(=O)c1ccc(-c2ccc(C(F)(F)F)cc2)cc1)N(O)C=O (racemic) [Example 126, (±)-N-hydroxy-N-[1-(methoxymethyl)-2-[[4′-(trifluoromethyl)[1,1′-biphenyl]-4-yl]sulfonyl]ethyl]formamide]
12 | 142 to 145 °C | N#Cc1ccc(-c2ccc(OCCN(O)C=O)cc2)cc1 [Example 15, N-[2-[(4′-cyano-[1,1′-biphenyl]-4-yl)oxy]ethyl]-N-hydroxyformamide]
13 | 174.6 to 175.2 °C | CC(CS(=O)(=O)c1ccc(-c2ccc(C(F)(F)F)cc2)cc1)N(O)C=O (racemic) [Example 122, (±)-N-hydroxy-N-[1-methyl-2-[[4′-(trifluoromethyl)[1,1′-biphenyl]-4-yl]sulfonyl]ethyl]formamide]
14 | 128 °C | N#Cc1cccc(-c2ccc(OCC(CN3C(=O)CCC3=O)N(O)C=O)cc2)c1 (stereo not drawn) [Example 49, N-[1-[[(3′-cyano[1,1′-biphenyl]-4-yl)oxy]methyl]-2-(2,5-dioxo-1-pyrrolidinyl)ethyl]-N-hydroxyformamide]
15 | 165 to 167 °C | CS(=O)(=O)c1ccc(-c2ccc(S(=O)(=O)CC(CO)N(O)C=O)cc2)cc1 (racemic) [Example 148, (±)-N-hydroxy-N-[1-(hydroxymethyl)-2-[[4′-(methylsulfonyl)[1,1′-biphenyl]-4-yl]sulfonyl]ethyl]formamide]
16 | 141 to 144 °C | CC(COc1ccc(-c2ccc(C#N)cc2)cc1)N(O)C=O (racemic) [Example 13, (±)-N-[1-[[(4′-cyano-[1,1′-biphenyl]-4-yl)oxy]methyl]ethyl]-N-hydroxyformamide]
17 | 161 to 162 °C | CSc1ccc(-c2ccc(S(=O)(=O)CC(CO)N(O)C=O)cc2)cc1 (racemic) [Example 150, (±)-N-hydroxy-N-[1-(hydroxymethyl)-2-[[4′-(methylthio)[1,1′-biphenyl]-4-yl]sulfonyl]ethyl]formamide]
18 | 172 °C | O=CN(O)C(COCc1ccccc1)CS(=O)(=O)c1ccc(-c2ccc(C(F)(F)F)cc2)cc1 (stereo not drawn) [Example 77, N-[1-[(phenylmethoxy)methyl]-2-[[4′-(trifluoromethyl)[1,1′-biphenyl]-4-yl]sulfonyl]ethyl]-N-hydroxyformamide]
19 | 137.1 to 138.5 °C | COCOc1ccc(C(CS(=O)(=O)c2ccc(-c3ccc(C(F)(F)F)cc3)cc2)N(O)C=O)cc1 (racemic) [Example 129, (±)-N-hydroxy-N-[1-[4-(methoxymethoxy)phenyl]-2-[[4′-(trifluoromethyl)[1,1′-biphenyl]-4-yl]sulfonyl]ethyl]formamide]
20 | 186.5 to 188.8 °C | O=CN(O)C(CS(=O)(=O)c1ccc(-c2ccc(C(F)(F)F)cc2)cc1)c1cccnc1 (racemic) [Example 120, (±)-N-hydroxy-N-[1-(3-pyridinyl)-2-[[4′-(trifluoromethyl)[1,1′-biphenyl]-4-yl]sulfonyl]ethyl]formamide]
21 | 159.5 to 160.5 °C | O=CN(O)C(CS(=O)(=O)c1ccc(-c2ccc(C(F)(F)F)cc2)cc1)c1ccc2c(c1)OCO2 (racemic) [Example 127, (±)-N-[1-(1,3-benzodioxol-5-yl)-2-[[4′-(trifluoromethyl)[1,1′-biphenyl]-4-yl]sulfonyl]ethyl]-N-hydroxyformamide]
22 | 105 to 108 °C | CCCCC(COc1ccc(-c2ccc(C#N)cc2)cc1)N(O)C=O (racemic) [Example 9, (±)-N-[1-[[(4′-cyano-[1,1′-biphenyl]-4-yl)oxy]methyl]pentyl]-N-hydroxyformamide]
23 | 96 to 98 °C | CCC(C)C(COc1ccc(-c2ccc(C#N)cc2)cc1)N(O)C=O (racemic) [Example 8, (±)-N-[1-[[(4′-cyano-[1,1′-biphenyl]-4-yl)oxy]methyl]-2-methylbutyl]-N-hydroxyformamide]
24 | 185.6 to 187.3 °C | CC1(C)CC(=O)N(CC(CS(=O)(=O)c2ccc(-c3ccc(C(F)(F)F)cc3)cc2)N(O)C=O)C(=O)C1 (racemic) [Example 124, (±)-N-[1-[(4,4-dimethyl-2,6-dioxo-1-piperidinyl)methyl]-2-[[4′-(trifluoromethyl)[1,1′-biphenyl]-4-yl]sulfonyl]ethyl]-N-hydroxyformamide]
